Experimental data: paper PMC3702004, “Comparison of Intake and Systemic Relative Effect Potencies of Dioxin-like Compounds in Female Mice after a Single Oral Dose” (Environmental Health Perspectives, 2013)

System: Cyp1a2 mRNA in liver
Assay: Cyp1a2 gene expression in liver (real-time PCR)
Assay type: in vivo, female C57BL/6 mice
Conditions: for BMR20TCDD Liver Cyp1a2 mRNA: 3 days after single oral dose; for REP Liver Cyp1a2 mRNA: relative to TCDD
Method: Animals. Eight-week-old female C57BL/6 mice (Harlan laboratories, Venray, the Netherlands) were randomly assigned to treatment groups (six animals per group) and allowed to acclimate for 1.5 weeks. The animals were housed in groups in standard cages and conditions (23 ± 2°C, 50–60% relative humidity, 12-hr dark/light cycle) with free access to food and water. Mice received a single dose of test compound by oral gavage at a dosing volume of 10 mL/kg body weight (BW). Mice treated with corn oil vehicle (10 mL/kg BW) served as controls. For each congener, five different doses were administered, ranging from 0.5–100 μg/kg BW (TCDD) to 5,000–500,000 µg/kg BW (PCB-153). Detailed information on doses is provided in Supplemental Material, Table S1 (http://dx.doi.org/10.1289/ehp.1206336). On day 3 after dosing, animals were euthanized by CO2/O2 asphyxiation, and blood was immediately collected from the abdominal aorta. The liver, thymus, spleen, and adipose tissue were removed, weighed (liver, thymus, and spleen), snap frozen, and stored at –80°C. All animal treatments were performed with permission of the Animal Ethical Committee (DEC Utrecht) and performed according to the [Law on Animal Experiments (1977)]. Animals were treated humanely and with regard for alleviation of suffering.
RNA isolation and quantitative real-time polymerase chain reaction (PCR). Total RNA was isolated from liver and PBLs using a QIAGEN RNeasy kit (QIAGEN). Purity and concentration of the isolated RNA was determined by measuring the absorbance ratio at 260/280 nm and 230/260 nm with a Nanodrop 2000 spectrophotometer (Thermo Scientific, Asheville, NC, USA). RNA was reverse transcribed to complementary DNA (cDNA) using the iScript cDNA synthesis Kit (Bio-Rad, Veenendaal, the Netherlands). Quantitative real-time PCR analyses were performed using the iQ Real-Time PCR Detection System with SYBR green (Bio-Rad). Amplification reactions were set up with […] containing 12.5 μL iQ SYBR Green Supermix (Bio-rad), 0.5 μL distilled H2O, 1 μL (10 μM) forward primer, 1 μL (10 μM) reverse primer, and 10 μL first strand cDNA (10X diluted). Primer sequences were as follows: Cyp1a1: forward-5´-GGTTAACCATGACCGGGAACT-3´ and reverse-5´-TGCCCAAACCAAAGAGAGTGA-3´ ([Schulz et al. 2012]); Cyp1a2: forward-5´-ACATTCCCAAGGAGCGCTGTATCT-3´ and reverse-5´-GTCGATGGCCGAGTTGTTATTGGT-3´ ([Flaveny et al. 2010]); Cyp1b1: forward-5´-GTGGCTGCTCATCCTCTTTACC-3´ and reverse-5´-CCCACAACCTGGTCCAACTC-3´ ([Berge et al. 2004]); β-actin: forward-5´-ATGCTCCCCGGGCTGTAT-3´ and reverse-5´-CATAGGAGTCCTTCTGACCCATTC-3´ ([Schulz et al. 2012]). All primers were run through the National Center for Biotechnology Information Primer-BLAST database (http://www.ncbi.nlm.nih.gov/tools/primer-blast/) to confirm specificity and validate for optimal annealing temperature (60°C for all primers) and efficiency. The efficiency of all primer pairs was 98–102% (tested at 60°C). The following program was used for denaturation and amplification of cDNA: 3 min at 95°C, followed by 40 cycles of 15 sec at 95°C and 45 sec at 60°C. Gene expression for each sample was expressed as threshold cycle (Ct), normalized to the reference gene β-actin (ΔCt). We calculated fold induction relative to the control group.
Data analysis. We obtained concentration–response curves using a sigmoidal dose–response nonlinear regression curve fit with variable slope (GraphPad Prism 6.01; GraphPad Software Inc., San Diego, CA, USA):
In this Hill equation, y is the dependent variable (EROD activity or fold induction of mRNA levels), x the independent variable (administered or systemic dose), E0 is the estimated background response level, Emax is the maximum response, b is the estimated median effective concentration (EC50), and n is the shaping parameter of the Hill curve.
Using the congener-specific BMR20TCDD concentration, REPs were calculated relatively to TCDD: […]

[1] = dose metric Adm dose (µg/kg BW)
[2] = dose metric Syst adipose (ng/g lipid)
[3] = dose metric Syst liver (ng/g lipid)
[4] = dose metric Syst liver (ng/g liver)
[5] = dose metric Syst plasma (ng/g lipid)

Row | SMILES | BMR20TCDD Liver Cyp1a2 mRNA (dose metric Adm dose) | BMR20TCDD Liver Cyp1a2 mRNA (dose metric Syst adipose) | BMR20TCDD Liver Cyp1a2 mRNA (dose metric Syst plasma) | REP Liver Cyp1a2 mRNA [1] | REP Liver Cyp1a2 mRNA [2] | REP Liver Cyp1a2 mRNA [3] | REP Liver Cyp1a2 mRNA [4] | REP Liver Cyp1a2 mRNA [5]
1 | Clc1cc2oc3c(Cl)c(Cl)c(Cl)cc3c2cc1Cl [Congener 4-PeCDF, 2,3,4,7,8-pentachlorodibenzofuran] | 8.83 µg/kg BW | 6.53 ng/g lipid | 8.01 ng/g lipid | 0.05 | 0.3 | 0.03 | 0.04 | 0.2
2 | Clc1ccc(-c2cc(Cl)c(Cl)cc2Cl)cc1Cl [PCB-118, 2,3´,4,4´,5-pentachlorobiphenyl] | 15,522 µg/kg BW | 117,517 ng/g lipid | 103,230 ng/g lipid | 0.00003 | 0.00001 | 0.0002 | 0.0003 | 0.00002
3 | Clc1ccc(-c2cc(Cl)c(Cl)c(Cl)c2)cc1Cl [PCB-126, 3,3´,4,4´,5-pentachlorobiphenyl] | 87.4 µg/kg BW | 120 ng/g lipid | 135 ng/g lipid | 0.005 | 0.01 | 0.002 | 0.003 | 0.01
4 | Clc1ccc(-c2cc(Cl)c(Cl)c(Cl)c2Cl)cc1Cl [PCB-156, 2,3,3´,4,4´,5-hexachlorobiphenyl] | 12,085 µg/kg BW | 22,134 ng/g lipid | 60,702 ng/g lipid | 0.00003 | 0.00008 | 0.0003 | 0.0006 | 0.00003
5 | Clc1cc2c(cc1Cl)Oc1c(cc(Cl)c(Cl)c1Cl)O2 [PeCDD, 1,2,3,7,8-pentachlorodibenzodioxin] | 0.56 µg/kg BW | 1.20 ng/g lipid | 2.36 ng/g lipid | 0.7 | 1 | 0.5 | 0.6 | 0.8
6 | Clc1cc2c(cc1Cl)Oc1cc(Cl)c(Cl)cc1O2 [TCDD, 2,3,7,8-tetrachlorodibenzodioxin, reference compound] | 0.41 µg/kg BW | 1.73 ng/g lipid | 1.85 ng/g lipid | 1 | 1 | 1 | 1 | 1
